Consider 18 molecules from the Deep4Chem optical property database.

A short description of the data set: solvent given as SMILES.

In the case of `Fc1ccc(C2=NC(c3ccccc3)C(N(c3ccccc3)c3ccccc3)S2)cc1` (stereo not given), the absorption maximum (in ClC(Cl)Cl) came to 363 nm.

Where the note is “in C1CCOC1”, `C(=C1c2ccccc2-c2ccccc21)c1ccc(C=C2c3ccccc3-c3ccccc32)cc1` had an absorption maximum of 365 nm.

As for `O=P1(c2ccccc2)c2cc(N3c4ccccc4Sc4ccccc43)ccc2-c2ccc(N3c4ccccc4Sc4ccccc43)cc21`, the absorption maximum (in Cc1ccccc1) worked out at 399 nm. Regarding `COc1ccc(C2=[N+]3C(=Nc4c(-c5ccccc5)c(Br)c(-c5ccc(OC)cc5)n4[B-]3(F)F)C(c3ccccc3)=C2Br)cc1`, the absorption maximum is, setting by setting: (in ClC(Cl)Cl) 679 nm; (in ClCCl) 679 nm. Consider `Brc1ccc(-c2nc(-c3ccc(C#Cc4ccc(-n5c6ccccc6c6ccccc65)cc4)cc3)nc(-c3ccc(C#Cc4ccc(-n5c6ccccc6c6ccccc65)cc4)cc3)n2)cc1`, for which the absorption maximum (in ClCCl) came out at 357 nm.

Regarding `CCCCCCn1c(=O)c2c3[nH]c4ccccc4sc3c3c(=O)n(CCCCCC)c(=O)c3c2c1=O`, for the setting “in ClCCl”, the absorption maximum stood at 500 nm. In turn, `CCCCC(CC)COc1ccc2nc(-c3ccc(-c4ccccc4)s3)sc2c1` (stereo not given) showed an absorption maximum (in ClCCl) of 368 nm.

For the molecule `CC(C)(C)c1cc(-c2cc3c(cc(-c4cc(C(C)(C)C)cc(C(C)(C)C)c4)n3-c3ccc(C(=C(c4ccccc4)c4ccccc4)c4ccccc4)cc3)n2-c2ccc(C(=C(c3ccccc3)c3ccccc3)c3ccccc3)cc2)cc(C(C)(C)C)c1`, the absorption maximum (in ClCCl) worked out at 337 nm.

`CCCCCc1ccc(C#Cc2cc(C#Cc3ccc(CCCCC)cc3)c3ccc4c(C(=O)c5ccccc5)cc(C#Cc5ccc(CCCCC)cc5)c5ccc2c3c54)cc1` registered an absorption maximum (in ClCCl) of 457 nm.

Consider `CC1(C)C(/C=C/C=C/c2cc3ccc(O)cc3oc2=O)=[N+](CCCS(=O)(=O)[O-])c2ccc(S(=O)(=O)O)cc21`, for which the absorption maximum by setting is: (in CCO) 508 nm; (in CS(C)=O) 494 nm; (in O) 592 nm. For `C[Si](C)(C)C#CC(C#C[Si](C)(C)C)=Cc1ccc(C=C(C#C[Si](C)(C)C)C#C[Si](C)(C)C)cc1`, for the setting “in ClC(Cl)Cl”, the absorption maximum was found to be 412 nm. On the same count and under the same terms, the figure for `CCCCCCCCc1ccc(-n2c3c4ccccc4nc(-c4ccc(C#N)cc4)c3c3c2c2c(-c4ccc(C#N)cc4)nc4ccccc4c2n3-c2ccc(CCCCCCCC)cc2)cc1` is 314 nm. For `CCCCCCC1(CCCCCC)c2cc(-c3nc(-c4ccc5c(c4)C(CCCCCC)(CCCCCC)c4cc(N6c7ccccc7Sc7ccccc76)ccc4-5)nc(-c4ccc5c(c4)C(CCCCCC)(CCCCCC)c4cc(N6c7ccccc7Sc7ccccc76)ccc4-5)n3)ccc2-c2ccc(N3c4ccccc4Sc4ccccc43)cc21`, for the setting “in C1CCOC1”, the absorption maximum was 400 nm. Turning to `Cc1cccc2cc(-c3cc4cccc(C)c4oc3=O)oc12`, the absorption maximum by setting is: (in CC#N) 369 nm; (in CCOC(C)=O) 370 nm; (in CS(C)=O) 373 nm; (in Cc1ccccc1) 376 nm; (in O) 367 nm. `CCc1c(C)c2n(c1C)[B-](F)(F)[N+]1=C(C=C3c4ccccc4-c4ccccc43)C=CC1=C2C`: for the setting “in C1CCCCC1”, the absorption maximum came to 589 nm. As for `O=C1c2ccccc2S(=O)(=O)c2ccc(-n3c4ccccc4c4ccccc43)cc21`, the absorption maximum was determined as 404 nm (in C1CCOC1); 404 nm (in CCCCCC); 404 nm (in Cc1ccccc1); 404 nm (in ClC(Cl)Cl); 404 nm (in ClCCl). Turning to `COc1ccc(/C=C/C(=O)c2c(O)cc(C)oc2=O)cc1`, the absorption maximum runs as follows: (in CC#N) 380 nm; (in ClCCl) 384 nm. Take `CN1C(=CC2=C([O-])C(=CC3=[N+](C)c4ccccc4C3(C)C)C2=C(C#N)C#N)C(C)(C)c2ccccc21`: the absorption maximum (in ClC(Cl)Cl) was found to be 684 nm.
